How the values were obtained:
[1] = test system: subjects with stable chronic angina
Procedure: A double blind placebo-controlled, randomized trial was conducted in 25 subjects with stable chronic angina. […] All of the subjects were evaluated before and after the double-blind trial, thereby measuring a subject's angina clinical score (CCS Angina Class), ECG, and exercise tolerance as assessed by the Duke Treadmill Score (DTS). Methods for using the DTS with patients in need of coronary intervention and its acceptance as an accurate predictor of cardiac morbidity and mortality in CHD and CAD patients has been well established. See for example Azeem T., et al., Int J. Clin. Pract. (2001), 55(1):10-13. […] Participants' clinical and cardiac parameters were evaluated either monthly, quarterly, half yearly and yearly.

[2] = test system: cell K uptake by RBC; assay: long-term assay from our laboratory: cell K uptake by RBC (results not shown)
[3] = test system: subjects with CHD having decreased RBC K content; type: in vivo, human
Procedure: Subjects were evaluated by clinical angina (CCS angina Class II-IV), dyspnea, or arrhythmia.
Exclusion Criteria: Evidence of acute coronary syndrome, AMI, stroke or cardiac arrhythmias; NYHA class III-IV of heart failure, hyperkalemia. Informed consent was obtained in all. Other non CHD causes of chest pain, dyspnea, and arrhythmia had been ruled out.
In addition to that, a single dose of calcium gluconolactate (1 g/daily) was given to all subjects having plasma ionized ICa^2+ ≦1.1 mmol/L, while other Laboratory correction and drug assessment were conducted across the first 3-month period (Table 1) Safety control (ECG, Ion Transport Laboratory, BIA, Non-Invasive Hemodynamic) was obtained at 1, 3 and 6 months and 1 year. Clinical control was obtained weekly in the first month or as needed for physician or patient symptoms; thereafter a 3, 6 and 12 months.
The subjects were taken off any drug that might impair RBC transport, such as digitalis, β-blockers, or NSAID's, in subjects with RBC K^+ ≦90.2 mmol/L cell. Oral calcium gluconolactate (1 g/daily) was administered in all subjects with plasma ionized calcium ≦1.1 mmol/L. Subjects had correction of other plasma electrolyte abnormalities. The subjects were taken off any drug that may affect ventricular repolarization, as digoxin, calcium channel blockers (CCB), diuretics, β-blockers, or the like. […] Anti-aggregants or aspirin in subjects free of angina were discontinued after the 3rd month of treatment.
All subjects underwent: a) Serial ECG for LVH by Cornell or Sokolow-Lyon Criteria (QRS duration times Cornell voltage: R aVL+SV3, with 6 mm [added in women >2440 mm×ms], or Sokolow-Lyon voltage: [SV1+RV5/V6] >38 mm; along with LV strain pattern (classical ST-segment depressed, with inverted T-waves), or LVH voltage criteria with mild LV strain pattern (isoelectric, biphasic or non-symmetrical negative T-waves, without ST-segment depression), and ECG criteria for infarction and/or ischemia (Q-waves from previous AMI, decreased R-wave height, non-progressive R-wave voltages in precordial leads, ST-segment elevation […] often referred as injury current, ST-segment depression ≧[…] often downsloping from the J point, rectification of the ST segment, and isoelectric, biphasic, negative or inverted T-wave), intraventricular conduction disturbance, and arrhythmias); b) Non-invasive hemodynamic study (DP200M) for cardiac parameters (LV Ejection Time (LVET), LV dP/dT (LV delta pressure-time), Cardiac output and index (CO, Cl), Stroke Volume (SV), Pulse Wave Analysis (PWA) of Central Aortic Blood Pressure (BP), Aortic Systolic (SBP), Diastolic (DBP) and mean (m) BP, Aortic augmentation index; inflection point and reflected wave analysis, Systemic Vascular Resistance and Compliance (SVR/SVC), and Brachial Artery Distensibility (BAD), Brachial Artery Compliance (BAC); c) Ion Transport Studies for RBC (K^+, Na^+) plasma (K^+, Na^+, Cl^−, ICa^2+, Mg^2+), and 12-hours night urinary volume (K^+, Na^+, Cl^−, pH), d) Bio-Impedance Analysis (BIA, Quantum X, RJL Systems, MI, USA) for Total body Potassium, Total body water/Extracellular Water, Fat Mass (FM) and Fat-Free Mass (FFM) and e) Echocardiography was obtained at entry, 6 and 12 months periods.

[4] = 1-month trial, Amiloride 5 mg/d, N=14
[5] = 1-month, Amiloride 5 mg/d, N=14

Cl.NC(N)=NC(=O)c1nc(Cl)c(N)nc1N.O.O [Amiloride, 3,5-diamino-6-chloro-N-(diaminomethylene) pyrazinecarboxamide monohydrochloride, dihydrate]
Double-Product [1, 4]: 25700 ± 4633 | Peak Exercise BP, diastolic [1, 4]: 94 ± 10 | Peak Exercise BP, systolic [1, 4]: 177 ± 19 | Peak Exercise HR [1, 4]: 144 ± 19 | Exercise Time ([1]; 1-month trial, Amiloride 5 mg/d, N=14, P<0.05 vs placebo): 7.95 ± 2.8 min | High Risk Value: Subjects (%) [1, 5]: 35.7% | Low Risk Value: Subjects (%) [1, 5]: 64.3% | subjects with improved ST-T alterations of ischemia ([1]; 4 weeks, Amiloride 5 mg daily, 9 out of 14): 64% | subjects free of angina ([1]; 4 weeks, Amiloride 5 mg daily, Twelve out of 14 subjects): 71% | adverse episodes of cardiac arrhythmia ([1]; 4 weeks, Amiloride 5 mg daily, exercise treadmill test): without any adverse episodes of cardiac arrhythmia | 1-Month DTS (Duke Treadmill Score) ([1]; Amiloride 5 mg/d, N=14, Baseline DTS −2.28 ± 7.0): 7.90 ± 4.2 | High Risk Value (DTS), changes from baseline to 1-month ([1]; Amiloride 5 mg/d, high risk subjects): *−3 ± −2.6 | Low Risk Value (DTS), changes from baseline to 1-month ([1]; Amiloride 5 mg/d, low risk subjects): *8.6 ± 2.3 | hereditable defect in cell K uptake by RBC [2]: reverses a hereditable defect in cell K uptake by RBC | RBC K ([3]; 1st month, baseline 84.5±4, p<0.001): 93.5±4 mmol/L cell | cardiovascular events or death ([3]; 2 years of follow-up): 0% | RBC K+ ([3]; 3rd month): remained improved | subjects with improved ST-segment depression or elevation and isoelectric, biphasic or inverted T-wave ([3]; 3rd month, CHD subjects, no nitrates, lower anti-aggregants or aspirin): 74% | LV Strain pattern ([3]; 3rd month, hypertensives): improved or almost reversed | LVH voltage criteria ([3]; 3rd month, hypertensives, p<0.001): significantly decreased | normotensive subjects with marked improved ST-segment depression or elevation and inverted T-waves ([3]; 6th month, 3 out 4): 75% | hypertensives subjects with improved LV Strain pattern ([3]; 6th month, about 4 out of 5): ~80% | ECG-LVH voltage, Sokolow-Lyon criteria ([3]; 6th month, baseline 29.3±5.2, p=0.001): 25.1±3.2 mm | ECG-LVH voltage, Cornell ([3]; 6th month, baseline 2577±509, p<0.02): 2353±254 mm×ms | subjects with previous inferior infarction whose ECGs remained unchanged for Q-waves ([3]; 6th month, these subjects were free of angina): 15% | QTc interval ([3]; human, in vivo): prolonged | hyperkalemia ([3]; human, in vivo): never observed | SVC (Systemic Vascular Compliance) ([3]; hypertensives, 1st month, baseline 0.92±0.16, p<0.003): 1.22±0.21 ml/mmHg | LV dP/dT ([3]; hypertensives, 1st month, baseline 1757±313, p<0.001): 1302±276 mmHg/s | BA Compliance ([3]; hypertensives, 1st month, baseline printed 0.57±0.021, p<0.005): 0.069±0.02 ml/mmHg | angina, single subject FIG. 7B ([3]; normotensive diabetic, after 5 months of Amiloride and calcium treatment): angina reversed | ECG change, single subject FIG. 3C ([3]; normotensive person, bypass surgery, infarction, instable angina, 6-months Amiloride and calcium): reversion of T-wave alterations | angina, single subject FIG. 7A ([3]; person, angina, diabetes, hypertension, after 4 months of Amiloride treatment): the angina reversed | clinical change, single subject FIG. 5B ([3]; person, hypertension, LVH, 3-months Amiloride, antihypertensive and vasodilators drugs): reversion of clinical symptoms of exertional angina, and palpitations | clinical change, single subject FIG. 4B ([3]; person, hypertension, infarction, heart failure, 2 months after addition of Amiloride and calcium gluconolactate): clinical improvement of angina (3 weeks), heart failure and hypertension | angina, single subject FIG. 6B ([3]; person, hypertension, post-infarction angina, Amiloride treatment): rapid reversion of angina (7 days) | ECG T-waves, single subject FIG. 4B ([3]; person, 2 months after addition of Amiloride and calcium gluconolactate): T-waves were improved | ECG T-wave, single subject FIG. 6B ([3]; person, after 5-months of Amiloride treatment): reversion of T-wave inversion | free of angina and symptoms of heart failure ([3]; within 1st month, Amiloride 5 mg/daily (calcium gluconolactate 1 g/daily if plasma ICa2+ ≦1.1 mmol/L), 75 CHD subjects): all subjects were free of angina and symptoms of heart failure
